According to PMC6105164 (Cancer Chemotherapy and Pharmacology, 2018):
“Also recorded” adds a separate entry of the source.

Tests used:
[1] = test system: relapsed/refractory solid tumors; test: Exploratory evaluation of efficacy (RECIST); format: in vivo, human; settings: for Number of cycles completed, Median / Number of cycles completed, Range: completed = ≥ 60% of planned treatment
Source text: Treatment was immediately terminated at the patient’s request when DLT occurred; the study physician decided that continuation was inappropriate because of AEs; or if the tumor was classified as progressive disease (PD) according to the Response Evaluation Criteria in Solid Tumor (RECIST) Guideline. In cases of DLT, patients were allowed to continue the regimen with dose adjustments upon providing written agreement. At the end of the regimen, patients were allowed to repeat the same regimen if all of the following criteria were met: no DLT occurred; the tumor was not determined as PD; the study physicians agreed; and the patient provided written informed consent. […] Diagnostic imaging using computed tomography, magnetic resonance imaging (MRI), fluorodeoxyglucose-positron emission tomography (PET), and/or bone scintigraphy was performed depending on the tumors and clinical symptoms on day 22 of first and repeated regimens or at discontinuation. Specific tumor markers (e.g., carcinoembryonic antigen for colorectal cancer and prostate-specific antigen for prostate cancer) were measured on day 22 of first and repeated regimens or at discontinuation. Based on the information obtained, the efficacy was scored in accordance with the RECIST guideline.

US patients = settings: cited from earlier work
[2] = test system: patients with KRAS mutations; settings: previous phase II trial; cited from earlier work
[3] = 800 mg twice-daily, for one patient days until withdrawal were counted
[4] = 800 mg twice-daily, two patients not evaluated
[5] = patients with KRAS mutations (4 patients)

CC(C)=CCC/C(C)=C/CC/C(C)=C/CSc1ccccc1C(=O)O [Salirasib, S-trans, trans-farnesylthiosalicylic acid]
Progression-free survival, Range ([1]; 200 mg twice-daily): 57 to 373 days | Response rate: Complete response (CR) ([1]; 200 mg twice-daily): 0 (0.0) N (%) | Response rate: Partial response (PR) ([1]; 200 mg twice-daily): 0 (0.0) N (%) | Response rate: Progressive disease (PD) ([1]; 200 mg twice-daily): 0 (0.0) N (%) | Number of cycles completed, Median ([1]; 200 mg twice-daily): 7 | Number of cycles completed, Range ([1]; 200 mg twice-daily): 2–13 | Disease control rate (DCR): CR + PR + SD ([1]; 400 mg twice-daily): 2 (66.7) N (%) | Objective response rate (ORR): CR + PR ([1]; 400 mg twice-daily): 0 (0.0) N (%) | Progression-free survival, Median ([1]; 400 mg twice-daily): 56 days | Progression-free survival, Range ([1]; 400 mg twice-daily): 22 to 91 days | Response rate: Complete response (CR) ([1]; 400 mg twice-daily): 0 (0.0) N (%) | Response rate: Partial response (PR) ([1]; 400 mg twice-daily): 0 (0.0) N (%) | Response rate: Progressive disease (PD) ([1]; 400 mg twice-daily): 1 (33.3) N (%) | Number of cycles completed, Median ([1]; 400 mg twice-daily): 2 | Number of cycles completed, Range ([1]; 400 mg twice-daily): 1–3 | Disease control rate (DCR): CR + PR + SD ([1]; 600 mg twice-daily): 2 (66.7) N (%) | Objective response rate (ORR): CR + PR ([1]; 600 mg twice-daily): 0 (0.0) N (%) | Progression-free survival, Median ([1]; 600 mg twice-daily): 135 days | Progression-free survival, Range ([1]; 600 mg twice-daily): 79 to 319 days | Response rate: Complete response (CR) ([1]; 600 mg twice-daily): 0 (0.0) N (%) | Response rate: Partial response (PR) ([1]; 600 mg twice-daily): 0 (0.0) N (%) | Response rate: Progressive disease (PD) ([1]; 600 mg twice-daily): 1 (33.3) N (%) | Number of cycles completed, Median ([1]; 600 mg twice-daily): 5 | Number of cycles completed, Range ([1]; 600 mg twice-daily): 3–11 | Number of cycles completed, Median ([1]; 800 mg twice-daily): 1 | Number of cycles completed, Range ([1]; 800 mg twice-daily): 1–11 | Progression-free survival, Median [1, 3]: 29 days | Progression-free survival, Range [1, 3]: 22 to 307 days | Disease control rate (DCR): CR + PR + SD [1, 4]: 1 (16.7) N (%) | Objective response rate (ORR): CR + PR [1, 4]: 0 (0.0) N (%) | Response rate: Complete response (CR) [1, 4]: 0 (0.0) N (%) | Response rate: Partial response (PR) [1, 4]: 0 (0.0) N (%) | Response rate: Progressive disease (PD) [1, 4]: 3 (50.0) N (%) | Disease control rate (DCR): CR + PR + SD ([1]; 1000 mg twice-daily): 1 (33.3) N (%) | Objective response rate (ORR): CR + PR ([1]; 1000 mg twice-daily): 0 (0.0) N (%) | Progression-free survival, Median ([1]; 1000 mg twice-daily): 22 days | Progression-free survival, Range ([1]; 1000 mg twice-daily): 22 to 91 days | Response rate: Complete response (CR) ([1]; 1000 mg twice-daily): 0 (0.0) N (%) | Response rate: Partial response (PR) ([1]; 1000 mg twice-daily): 0 (0.0) N (%) | Response rate: Progressive disease (PD) ([1]; 1000 mg twice-daily): 2 (66.7) N (%) | Number of cycles completed, Median ([1]; 1000 mg twice-daily): 1 | Number of cycles completed, Range ([1]; 1000 mg twice-daily): 1–3 | Disease control rate (DCR): CR + PR + SD ([1]; Total, all dose groups): 10 (47.6) N (%) | Objective response rate (ORR): CR + PR ([1]; Total, all dose groups): 0 (0.0) N (%) | Progression-free survival, Median ([1]; Total, all dose groups): 53 days | Progression-free survival, Range ([1]; Total, all dose groups): 16 to 373 days | Response rate: Complete response (CR) ([1]; Total, all dose groups): 0 (0.0) N (%) | Response rate: Partial response (PR) ([1]; Total, all dose groups): 0 (0.0) N (%) | Response rate: Progressive disease (PD) ([1]; Total, all dose groups): 9 (42.9) N (%) | Number of cycles completed, Median ([1]; Total, all dose groups): 2 | Number of cycles completed, Range ([1]; Total, all dose groups): 1–13 | complete response (CR) or partial response (PR), in words ([1]; all patients, during the trial): Neither complete response (CR) nor partial response (PR) was found; also recorded: no patients showed CR or PR | patients who repeated the regimen ([1]; of 21 patients): 11 patients | Progression-free survival, Range [1, 5]: 79 to 373 days | median progression-free survival [1, 5]: 227 days | number of cycles, median [1, 5]: 8 cycles | number of cycles, range [1, 5]: 3–13 cycles | drug-related AEs (US patients; US patients on 800-mg regimen): all patients on 800-mg regimen experienced drug-related AEs | Dose-limiting toxicity (DLT) (US patients; phase I trial in the US patients, up to 800 mg): no DLT was observed up to 800 mg | partial response (PR) [2]: no patients achieved PR
